Source: patent US12422369B2, “Immunosensor” (PPB Technology Pty Ltd, priority 2019, dated 2025)
“And” between values parts separate entries of the source, which are not always exact repeats. Equal values may be shown once.

What was measured:
[1] = molecular target: Anti-FLAG mAb; assay: Competitive BRET binding assay for FLAG peptide, antibody-12/36-RLuc8 conjugate, Fluorostar plate-reader; conditions: mAb-12/36-RLuc8 50 nM, 200 nM FLAG-GFP^2, Fluorostar
Description: In order to determine whether the immunosensors of the present invention can be used to detect and measure the concentration of an analyte, the antibody-12/36-RLuc8 conjugate was incubated with 200 nM FLAG-GFP^2 and varying concentrations of FLAG peptide (from 256 μM to less than 0.5 nM) for 5 minutes before coelenterazine 400a was added and the BRET ratio determined using the Fluorostar plate-reader as described in Example 9. The BRET ratios were plotted against Log [FLAG] values.

[2] = system: Anti-FLAG mAb; assay: Competitive BRET calibration for FLAG peptide, mAb-24/36-RLuc8 conjugate, Clariostar plate-reader; type: binding; conditions: 5 nM mAb-24/36-RLuc8, 10 nM FLAG-GFP^2, 5 minute incubation
Description: A calibration was also performed using the Clariostar plate-reader (BMG) and the antibody-24/36-RLuc8 conjugate. Measurements were made in the bioluminescence mode and the dual linear variable filters were set to 410-80 (Gain: 3300) for RLuc8 emission and 515-30 (Gain: 4095) for GFP^2 emission. An integration time of 1.54 s was used. Coelenterazine 400a was prepared by adding 100 μL ethanol to a dried aliquot (0.5 mM), with 1 μL added to the final assay to give a final concentration of 5 μM. A final concentration of 5 nM of RLuc8-conjugate and 10 nM GFP^2-FLAG was used for assays. The final assay volume was 100 μL with PBS (with BSA (1 mg/ml) used to make up the volume.
To construct a standard curve using the Clariostar, 5 nM mAb-24/36-RLuc8 conjugate was added to 10 nM FLAG-GFP^2 in PBS with BSA (1 mg/mL) and the mixture incubated with unlabelled FLAG peptide (various concentrations) for 5 minutes at 28° C. Coelenterazine 400a was added and the BRET response determined. BRET ratio was calculated by dividing the GFP^2 intensity (average 0-13.86 s) by the RLuc8 intensity (average 0-13.86 s). The BRET ratios were normalised using the normalisation function in Graphpad Prism 7 for Windows, plotted against Log [FLAG] values and fitted with a Log [Agonist] vs normalized response—variable slope model.

[3] = system: T9NB1-RLuc8; assay: BRET^2 competitive assay for TCC with nanobody sensor T9NB1-RLuc8/TCC-4′-S—(CH2)2—CO-GFP^2; type: binding, camelid; conditions: 10 nM T9NB1-RLuc8 and 10 nM TCC-4′-S—(CH2)2—CO-GFP^2, 2% DMSO/PBS, 5 minutes at 22° C.
Description: Instrumentation: Simultaneous dual emission BRET measurements were carried out with a CLARIOstar microplate reader (BMG LabTech). BRET^2 measurements used the BRET^2 emission filter set comprising RLuc/CLZ400a emission filter (410 nm bandpass, 80 nm) and the GFP^2 emission filter (515 nm bandpass, 30 nm). BRET^2 ratios were calculated as ratios of integrated acceptor emission channel intensity to integrated donor emission channel intensity.
BRET^2 assay: All reactions were carried out in white 96-well plates (Perkin-Elmer, Australia). A final concentration of 10 nM of T9NB1-RLuc8 and 10 nM of TCC-4′-S—(CH2)2—CO-GFP^2 were used for all assays, in a final volume of 100 μL 2% DMSO in PBS.
To construct a calibration curve, 10 nM of T9NB1-RLuc8 and 10 nM of TCC-4′-S—(CH2)2—CO-GFP^2 were incubated for 5 minutes at 22° C. with a range of different final concentrations of TCC, namely 1, 3, 6.3, 12.5, 25, 50, 100 and 200 nM, added from a stock of TCC in DMSO or DMSO only (2% final concentration in PBS). At the end of the incubation time, 1 μL of coelenterazine 400a (1 mM stock) in EtOH was added to the reaction mixture (final [CLZ400a]=10 μM) and the luminescence intensities recorded immediately. The BRET^2 ratios were calculated and are presented as a function of the concentration of TCC in FIG. 8. […]

[4] = Luciferase activity with Coelenterazine 400a; type: biochemical
Description: Luciferase activity: Coelenterazine 400a (Cayman Chemicals) (6-phenyl-2,8-bis(phenylmethyl)-imidazo[1,2-a]pyrazin-3(7H)-one) (1 mg) was dissolved in 10.2 mL ethanol and partitioned into 200 μL aliquots which were dried (Speedivac) and stored at −20° C. until use.
Coelenterazine 400a (50 nmol) was dissolved in 50 μL ethanol and 450 μL water was added. RLuc8 monomer (2.4 mg/mL) and RLuc8 dimer (4.8 mg/mL) were diluted in 1 mg/mL BSA in buffer. In a well of a white 96-well Optiplate (Perkin Elmer) was added TBS, PBS or 100 mM sodium phosphate pH 7.0, 2 μL luciferase enzyme (1/10 or 1/100 dilution) and 5 μL of 0.1 mM Coelenterazine 400a solution. The final volume in each well was 100 μL. The light produced was measured in a FLUOstar Optima (BMG Labtech) using luminescence optics and no filter.

DYKDDDDK [FLAG peptide]
EC50 [1]: 274 nM
EC50 [2]: 1.41 nM

O=C(Nc1ccc(Cl)cc1)Nc1ccc(Cl)c(Cl)c1 [TCC, triclocarban]
EC50 [3]: 17.3 nM and 17 nM

B1: N-His-RLuc8: N-terminal hexahistidine tagged Renilla reniformis luciferase RLuc8-LPETGG, SEQ ID NO: 5 (protein)
chain: MGHHHHHHGTENLYFQGSASKVYDPEQRKRMITGPQWWARCKQMNVLDSFINYYDSEKHAENAVIFLHGNATSSYLWRHVVPHIEPVARCIIPDLIGMGKSGKSGNGSYRLLDHYKYLTAWFELLNLPKKIIFVGHDWGAALAFHYAYEHQDRIKAIVHMESVVDVIESWDEWPDIEEDIALIKSEEGEKMVLENNFFVETVLPSKIMRKLEPEEFAAYLEPFKEKGEVRRPTLSWPREIPLVKGGKPDVVQIVRNYNAYLRASDDLPKLFIESDPGFFSNAIVEGAKKFPNTEFVKVKGLHFLQEDAPDEMGKYIKSFVERVLKNEQLPETGGAALEAS
modifications: N-His-RLuc8
Luciferase activity, monomer versus dimer ([4]; Coelenterazine 400a, FLUOstar Optima, no filter): more active than the dimeric form
Luciferase activity over time ([4]; after Coelenterazine 400a addition, data not shown): decreased very rapidly (over a few seconds)
